Assay: Inhibition of 1-monooleoyl glycerol (MOG) induced beta-hematin formation

Row | SMILES | IC50 [µM]
1 | CC(C)CN(CCCN1CCN(CCCNc2nc3ccccc3[nH]2)CC1)CC(C)C [(1H-Benzoimidazol-2-yl)-{3-[4-(3-diisobutylamino-propyl)-piperazin-1-yl]-propyl}-amine] | 63.6
2 | CC(C)CN(CCCN1CCN(CCCNc2nc3ccccc3o2)CC1)CC(C)C [Benzooxazol-2-yl-{3-[4-(3-diisobutylamino-propyl)-piperazin-1-yl]-propyl}-amine] | > 200
3 | CC(C)CN(CCCN1CCN(CCCNc2cnccn2)CC1)CC(C)C [{3-[4-(3-Diisobutylamino-propyl)-piperazin-1-yl]-propyl}-pyrazin-2-yl-amine] | > 200
4 | CC(C)CN(CCCN1CCN(CCCNCc2ccncc2)CC1)CC(C)C [Diisobutyl-[3-(4-{3-[(pyridin-4-ylmethyl)-amino]-propyl}-piperazin-1-yl)-propyl]-amine] | > 200

Further compounds by falling IC50, results first:

Row | IC50 [µM] | SMILES
5 | 62.3 | CC(C)CN(CCCN1CCN(CCCNc2ccnc3ccccc23)CC1)CC(C)C [{3-[4-(3-Diisobutylamino-propyl)-piperazin-1-yl]-propyl}-quinolin-4-yl-amine]
6 | 43.4 | CC(C)CN(CCCN1CCN(CCCNc2ccnc3cc(Cl)ccc23)CC1)CC(C)C [7-chloro-N-(3-(4-(3-(diisobutylamino)propyl)piperazin-1-yl)propyl)quinolin-4-amine]

Reference: BindingDB's records for doi:10.1016/j.bmcl.2003.07.008 (University of Lille, 2003)
